Where a name gives a salt, the structure may show the parent alone. Bridge positions count the residues as written; N and C are the ends. Square brackets hold non-standard residues; d marks the D form. Peptide text beside a SMILES is read from it. * marks the point of attachment. ξ: configuration not given here. X12 = CC(C)C[C@H](N)[C@H](O)C(=O)*; Thr(3ξ) = CC(O)[C@H](N)C(=O)O; Dab = NCC[C@H](N)C(=O)O; X1 = CCCCCCC(O)C(=O)*
Experiments:
[1] = tested on: Acinetobacter baumannii; experiment: MIC, compound in combination with a second agent (broth microdilution); type: cell-based; conditions: for MIC A. baumannii CCUG57249: strain CCUG57249
How it was run: (§1)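 Isolated colonies from an 18-24 hour Mueller-Hinton agar plate are suspended to the 0.5 McFarland standard, then tested against 1:1 w/w mixtures of compound and a second antibacterial such as rifampicin. Reported MICs represent total drug (both components).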

[2] = tested on: Klebsiella pneumoniae; experiment: as above; type: cell-based; conditions: for MIC K. pneumoniae CCUG-59348: strain CCUG-59348
How it was run: as §1

[3] = tested on: Escherichia coli; experiment: as above; type: cell-based
How it was run: as §1

[4] = tested on: Pseudomonas aeruginosa; experiment: as above; type: cell-based; conditions: for MIC P. aeruginosa ATCC-47: strain ATCC-47
How it was run: as §1

[5] = tested on: P. aeruginosa ATCC27853; type: in vivo, Pseudomonas aeruginosa; conditions: ATCC27853, in vivo, iv, 5 mg/kg, 6 h
Procedure: Compounds were administered in solution by intravenous (IV) bolus injection into the lateral tail vein. […] At 1 hour post infection, 4 animals were humanely euthanized using pentabarbitone overdose to provide a pre-treatment control group. At 9 hours post infection, the clinical condition of all animals was assessed prior to them being humanely euthanized by pentabarbitone overdose. Animal weight was determined before both thighs were removed and weighed individually. Individual thigh tissue samples were homogenized in ice cold sterile phosphate buffered saline. Thigh homogenates were then quantitatively cultured onto CLED agar and incubated at 37° C. for 24 hours before colonies were counted.

[6] = rats, 8 mg/kg BID regimen, seven days, compared to Colistin at the same dose regimen
Procedure: After one week acclimatisation, male Sprague-Dawley rats were surgically prepared with a jugular cannula and were housed individually, as required, either in pre-assigned housing cages or metabolic cages. Colistin and the Example Compounds were prepared in saline.
Compounds were introduced via the jugular cannula twice a day 7 hours apart for seven days. Each dose was increased progressively for three days up to the top dose that was then administered until termination of the study. Twenty-four hour urine collection (on ice) was performed at pre-dose and on days 4 and 7. The dose regimen is set out in Table 10 below.
The doses in the table are indicated in mg drug base/kg (free base).
The activity in urine of the N-acetyl-beta-D-glucosaminidase (NAG) was determined spectrophotometrically using the NAG assay kit from Roche Applied Science. Biomarkers of kidney injury were determined using the Kidney Injury Panel II from the Multi-Spot® Assay System (Meso Scale Discovery).

[7] = tested on: Klebsiella pneumoniae ATCC10031; conditions: 10 mg/kg/day, neutropenic mice thigh infection
Procedure: At 1 h, the CFU count was determined from 5 mice and the remaining mice (five per group) were treated with a subcutaneous injection of the drug at +1 and 6 hr post-infection.
Twenty-four hours after infection, the mice were euthanized humanely. The muscle of the right thigh of each animal was harvested, homogenized, serially diluted and plated on Brain Heart Infusion agar+0.5% charcoal (w/v) for CFU determination. Decrease of the total CFU of right thigh as compared to control counts at 24 h post-infection was determined for each dose group.

[8] = tested on: Acinetobacter baumannii; experiment: MIC, sole activity (no second agent); type: cell-based
How it was run: (§2)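 Compound tested without a second agent in cation-adjusted MHB, up to four strains per species, inoculum at 0.5 McFarland from colonies grown 18-24 h on Mueller-Hinton agar. Run in duplicate, invalid beyond 2-fold disagreement, lower duplicate or modal repeat value given, expressed relative to Polymyxin B.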

[9] = tested on: Klebsiella pneumoniae; experiment: MIC, sole activity (no second agent); type: cell-based
How it was run: as §2

[10] = tested on: Escherichia coli; experiment: MIC, sole activity (no second agent); type: cell-based
How it was run: as §2

[11] = tested on: Pseudomonas aeruginosa; experiment: MIC, sole activity (no second agent); type: cell-based
How it was run: as §2

[12] = tested on: HK-2 cell line; experiment: In vitro renal cell toxicity assay (resazurin reduction); type: cell-based, human
[13] = 1:1 (wt:wt) combination with Rifampicin, MIC = total drug concentration
[14] = 1:1 (wt:wt) combination with Rifampicin, MIC = total drug concentration, strain NCTC 13424
[15] = 1:1 (wt:wt) combination with Rifampicin, MIC = total drug concentration, strain NCTC9001
[16] = 1:1 (wt:wt) combination with Rifampicin, MIC = total drug concentration, strain ATCC 27853
[17] = 1:1 (wt:wt) combination with Rifampicin, MIC = total drug concentration, strain CCUG 59626
[18] = 1:1 combination with Ciprofloxacin (by row order), total drug concentration
[19] = 1:1 combination with Ciprofloxacin, total drug concentration
[20] = 1:1 combination with Tigecycline, total drug concentration
[21] = 1:1 combination with Vancomycin, total drug concentration
[22] = Second Agent none (Table 7B, by row order)

## CC(C)C[C@@H]1NC(=O)[C@@H](Cc2ccccc2)NC(=O)[C@H](CCN)NC(=O)[C@@H](NC(=O)[C@H](CCN)NC(=O)[C@@H](NC(=O)[C@@H](O)[C@@H](N)CC(C)C)C(C)O)CCNC(=O)[C@H](C(C)O)NC(=O)[C@H](CCN)NC(=O)[C@H](CCN)NC1=O (stereo partly drawn) [Example 41, (2S,3S)-3-Amino-2-hydroxy-5-methylhexanoyl polymyxin B nonapeptide, trifluoroacetate salt] (X12-[Thr(3ξ)][Dab][Dab][Dab][dF]L[Dab][Dab][Thr(3ξ)]; lactam 3-C)
[1]; 1:1 (wt:wt) combination with Rifampicin, MIC = total drug concentration, strain ATCC BAA-747
  MIC A. baumannii ATCC BAA-747: ≤0.06 micrograms/mL
[1]; [13]
  MIC A. baumannii CCUG57249: ≤0.06 micrograms/mL
[1]; 1:1 (wt:wt) combination with Rifampicin, MIC = total drug concentration, strain NCTC 13423
  MIC A. baumannii NCTC 13423: ≤0.06 micrograms/mL
[1]; [14]
  MIC A. baumannii NCTC 13424: ≤0.06 micrograms/mL
[2]; [13]
  MIC K. pneumoniae CCUG-59348: 2 micrograms/mL
[3]; 1:1 (wt:wt) combination with Rifampicin, MIC = total drug concentration, strain ATCC25922
  MIC E. coli ATCC25922: ≤0.06 micrograms/mL
[3]; [15]
  MIC E. coli NCTC9001: 0.125 micrograms/mL
[4]; [16]
  MIC P. aeruginosa ATCC 27853: 0.125 micrograms/mL
[4]; 1:1 (wt:wt) combination with Rifampicin, MIC = total drug concentration, strain ATCC CRM-9027
  MIC P. aeruginosa ATCC CRM-9027: 0.25 micrograms/mL
[4]; [13]
  MIC P. aeruginosa ATCC-47: ≤0.06 micrograms/mL
[4]; [17]
  MIC P. aeruginosa CCUG 59626: 0.125 micrograms/mL
[5]
  log reduction in bacterial counts compared to non-treated control: 2.73 log

## CCCCCCC(O)C(=O)N[C@H](C(=O)N[C@@H](CCN)C(=O)N[C@H]1CCNC(=O)[C@H]([C@@H](C)O)NC(=O)[C@H](CCN)NC(=O)[C@H](CCN)NC(=O)[C@H](CC(C)C)NC(=O)[C@@H](Cc2ccccc2)NC(=O)[C@H](CCN)NC1=O)[C@@H](C)O (stereo partly drawn) [Example 1, [2(R,S)-2-Hydroxyoctanoyl] polymyxin B nonapeptide] (X1-T[Dab][Dab][Dab][dF]L[Dab][Dab]T; lactam 3-C)
[6]
  levels of the renal biomarkers NAG, albumin and cystatin C in urine: significantly reduced levels
[7]
  reduction in bacterial counts: approx. 2 log10
[1]; [13]
  MIC A. baumannii CCUG57249: 0.25 micrograms/mL
[1]; [14]
  MIC A. baumannii NCTC 13424: 0.25 micrograms/mL
[1]; [18]
  MIC A. baumannii NCTC 13424: 0.5 micrograms/mL
[2]; 1:1 (wt:wt) combination with Rifampicin, MIC = total drug concentration, strain ATCC 4352
  MIC K. pneumoniae ATCC 4352: 1 micrograms/mL
[2]; 1:1 (wt:wt) combination with Rifampicin, MIC = total drug concentration, strain ATCC-BAA-2146
  MIC K. pneumoniae ATCC-BAA-2146: 2 micrograms/mL
[2]; [13]
  MIC K. pneumoniae CCUG-59348: 2 micrograms/mL
[2]; 1:1 (wt:wt) combination with Rifampicin, MIC = total drug concentration, strain NCTC 13438
  MIC K. pneumoniae NCTC 13438: 1 micrograms/mL
[2]; [18]
  MIC K. pneumoniae ATCC 4352: ≤0.06 micrograms/mL
  MIC K. pneumoniae ATCC BAA-1706: 0.5 micrograms/mL
[2]; [19]
  MIC K. pneumoniae CCUG 59348: 32 micrograms/mL
  MIC K. pneumoniae NCTC 13442: 1 micrograms/mL
[2]; [20]
  MIC K. pneumoniae CCUG 59348: >32 micrograms/mL
  MIC K. pneumoniae NCTC 13442: 16 micrograms/mL
[2]; [21]
  MIC K. pneumoniae CCUG 59348: >32 microgram/mL
  MIC K. pneumoniae CCUG 59626: 2 microgram/mL
  MIC K. pneumoniae NCTC 13442: 8 microgram/mL
[2]; K. pneumoniae ATCC BAA-1706, 1:1 combination with Meropenem, total drug concentration
  MIC K. pneumoniae ATCC BAA-1706: 4 micrograms/mL
[2]; K. pneumoniae CCUG 59348, 1:1 combination with Meropenem, total drug concentration
  MIC K. pneumoniae CCUG 59348: >32 micrograms/mL
[2]; K. pneumoniae NCTC 13442, 1:1 combination with Meropenem, total drug concentration
  MIC K. pneumoniae NCTC 13442: 8 micrograms/mL
[3]; [15]
  MIC E. coli NCTC9001: 0.5 micrograms/mL
[3]; [19]
  MIC E. coli ATCC25922: ≤0.06 micrograms/mL
  MIC E. coli CCUG 59342: 2 micrograms/mL
  MIC E. coli NCTC9001: ≤0.06 micrograms/mL
[3]; [20]
  MIC E. coli NCTC9001: 4 micrograms/mL
[3]; [21]
  MIC E. coli NCTC9001: 4 microgram/mL
[3]; E. coli NCTC9001, 1:1 combination with Meropenem, total drug concentration
  MIC E. coli NCTC9001: 0.25 micrograms/mL
[4]; [16]
  MIC P. aeruginosa ATCC 27853: 0.5 micrograms/mL
[4]; [13]
  MIC P. aeruginosa ATCC-47: 1 micrograms/mL
[4]; [17]
  MIC P. aeruginosa CCUG 59626: 1 micrograms/mL
[4]; [18]
  MIC P. aeruginosa ATCC 27853: 0.125 micrograms/mL
  MIC P. aeruginosa CCUG 59626: 1 micrograms/mL
[4]; [20]
  MIC P. aeruginosa CCUG 59626: 2 micrograms/mL
[4]; P. aeruginosa CCUG 59626, 1:1 combination with Meropenem, total drug concentration
  MIC P. aeruginosa CCUG 59626: 2 micrograms/mL
[8]; [22]
  MIC A. baumannii NCTC 13424: 4 micrograms/mL
[8]; in the absence of Rifampicin, strain ATCCBAA-747
  MIC A. baumannii ATCCBAA-747: 2 micrograms/mL
[8]; in the absence of Rifampicin, strain NCTC13423
  MIC A. baumannii NCTC 13423: 1 micrograms/mL
[9]; K. pneumoniae ATCC BAA-1706, second agent none
  MIC K. pneumoniae ATCC BAA-1706: 4 micrograms/mL
[9]; K. pneumoniae CCUG 59348, second agent none
  MIC K. pneumoniae CCUG 59348: >32 micrograms/mL
[9]; K. pneumoniae NCTC 13442, second agent none
  MIC K. pneumoniae NCTC 13442: 8 micrograms/mL
[9]; Second Agent none (Table 7A)
  MIC K. pneumoniae CCUG 59348: >32 microgram/mL
  MIC K. pneumoniae CCUG 59626: 2 microgram/mL
  MIC K. pneumoniae NCTC 13442: 8 microgram/mL
[9]; Second Agent none (Table 7B)
  MIC K. pneumoniae CCUG 59348: >32 micrograms/mL
  MIC K. pneumoniae NCTC 13442: 8 micrograms/mL
[9]; [22]
  MIC K. pneumoniae ATCC 4352: 1 micrograms/mL
  MIC K. pneumoniae ATCC BAA-1706: 4 micrograms/mL
[9]; Second Agent none (Table 7C)
  MIC K. pneumoniae CCUG 59348: >32 micrograms/mL
  MIC K. pneumoniae NCTC 13442: 8 micrograms/mL
[9]; in the absence of Rifampicin, strain ATCC 4352
  MIC K. pneumoniae ATCC 4352: 1 micrograms/mL
[9]; in the absence of Rifampicin, strain CCUG-59348
  MIC K. pneumoniae CCUG-59348: >32 micrograms/mL
[10]; E. coli NCTC9001, second agent none
  MIC E. coli NCTC9001: 4 micrograms/mL
[10]; Second Agent none (Table 7A)
  MIC E. coli NCTC9001: 4 microgram/mL
[10]; Second Agent none (Table 7B)
  MIC E. coli ATCC25922: 4 micrograms/mL
  MIC E. coli CCUG 59342: 1 micrograms/mL
  MIC E. coli NCTC9001: 8 micrograms/mL
[10]; Second Agent none (Table 7C)
  MIC E. coli NCTC9001: 4 micrograms/mL
[10]; in the absence of Rifampicin, strain ATCC25922
  MIC E. coli ATCC25922: 2 micrograms/mL
[10]; in the absence of Rifampicin, strain NCTC9001
  MIC E. coli NCTC9001: 2 micrograms/mL
[11]; P. aeruginosa CCUG 59626, second agent none
  MIC P. aeruginosa CCUG 59626: 2 micrograms/mL
[11]; [22]
  MIC P. aeruginosa ATCC 27853: 0.5 micrograms/mL
  MIC P. aeruginosa CCUG 59626: 2 micrograms/mL
[11]; Second Agent none (Table 7C)
  MIC P. aeruginosa CCUG 59626: 2 micrograms/mL
[11]; in the absence of Rifampicin, strain ATCC27853
  MIC P. aeruginosa ATCC 27853: 0.5 micrograms/mL
[11]; in the absence of Rifampicin, strain ATCCCRM-9027
  MIC P. aeruginosa ATCCCRM-9027: 0.25 micrograms/mL
[11]; in the absence of Rifampicin, strain CCUG 59626
  MIC P. aeruginosa CCUG 59626: 2 micrograms/mL
[12]
  HK-2 toxicity (IC50) compared with PMB: significantly increased recorded IC50 values

From patent US10407467B2, “Polymyxin derivatives and their use in combination therapy together with different antibiotics” (priority 2013, dated 2019)
